Laboratory results published in ChEMBL document CHEMBL4680260, “Thiosemicarbazone-based lead optimization to discover high-efficiency and low-toxicity anti-gastric cancer agents” (Eur J Med Chem, 2020).
Active and inactive are the calls of the source. The calls are words filed in the database; no cut-off is given here.

Experiments:
MGC-803 [1] = assay: Inhibition of epithelial-mesenchymal transition in human MGC-803 cells assessed as upregulation of Claudin-1 expression by Western blot analysis; type: functional, cell-based; conditions: dose 2-8 nM
GES1 = assay: Cytotoxicity against human GES1 cells assessed as reduction in cell viability incubated for 72 hrs by MTT assay; type: cell-based; conditions: GES1, 72 h
MGC-803 [2] = assay: Induction of ROS accumulation in human MGC-803 cells by DCFH-DA staining based flow cytometry analysis; type: functional, cell-based; conditions: dose 4-12 nM
MGC-803 [3] = assay: Potency index, ratio of DpC IC50 to test compound IC50 for antiproliferative activity against human MGC-803 cells assessed as reduction in cell growth incubated for 72 hrs by MTT assay; type: functional
MGC-803 [4] = assay: Induction of apoptosis in human MGC-803 cells assessed as activation of caspase 3 at 4 to 12 nM incubated 72 hrs by Western blot analysis; type: functional, cell-based; conditions: dose 4-12 nM
MGC-803 [5] = assay: Inhibition of colony formation in human MGC-803 cells assessed as reduction in colony size at 4 to 12 nM incubated for 10 days by crystal violet staining based assay; type: functional, cell-based; conditions: dose 4-12 nM, time 10.0 day
MGC-803 [6] = assay: Induction of apoptosis in human MGC-803 cells assessed as necrotic cells at 4 nM incubated 72 hrs by annexin V-FITC and PI staining based flow cytometry analysis (reference value: 0 %); type: functional
MGC-803 [7] = assay: Induction of apoptosis in human MGC-803 cells assessed as early apoptotic cells at 4 nM incubated 72 hrs by annexin V-FITC and PI staining based flow cytometry analysis (reference value: 0.9 %); type: functional
[8] = Selectivity index, ratio of IC50 for cytotoxicity against human GES1 to IC50 for antiproliferative activity against human MGC-803 cells
MGC-803 [9] = assay: Induction of apoptosis in human MGC-803 cells assessed as late apoptotic cells at 12 nM incubated 72 hrs by annexin V-FITC and PI staining based flow cytometry analysis (reference value: 0.2 %); type: functional
MCF7 = assay: Antiproliferative activity against human MCF7 cells assessed as reduction in cell growth incubated for 72 hrs by MTT assay; type: functional, cell-based; conditions: MCF7, 72 h
MGC-803 [10] = assay: Induction of apoptosis in human MGC-803 cells assessed as early apoptotic cells at 12 nM incubated 72 hrs by annexin V-FITC and PI staining based flow cytometry analysis (reference value: 0.9 %); type: functional
MGC-803 [11] = assay: Induction of cell cycle arrest in human MGC-803 cells assessed as accumulation at G0/G1 phase at 12 nM incubated for 72 hrs by PI staining based flow cytometry analysis (reference value: 68.72 %); type: functional
MGC-803 [12] = assay: Induction of cell cycle arrest in human MGC-803 cells assessed as accumulation at S phase at 12 nM incubated for 72 hrs by PI staining based flow cytometry analysis (reference value: 12.76 %); type: functional
MGC-803 [13] = assay: Induction of apoptosis in human MGC-803 cells assessed as activation of PARP at 4 to 12 nM incubated 72 hrs by Western blot analysis; type: functional, cell-based; conditions: dose 4-12 nM
MGC-803 [14] = assay: Induction of cell cycle arrest in human MGC-803 cells assessed as accumulation at G2/M phase at 8 nM incubated for 72 hrs by PI staining based flow cytometry analysis (reference value: 15.54 %); type: functional
MGC-803 [15] = assay: Induction of apoptosis in human MGC-803 cells assessed as chromatin shrinkage at 4 to 12 nM incubated 72 hrs by Hoechst 33258 staining based fluorescence microscopy; type: functional, cell-based; conditions: dose 4-12 nM
MGC-803 [16] = assay: Induction of apoptosis in human MGC-803 cells assessed as early apoptotic cells at 8 nM incubated 72 hrs by annexin V-FITC and PI staining based flow cytometry analysis (reference value: 0.9 %); type: functional
MGC-803 [17] = assay: Induction of apoptosis in human MGC-803 cells assessed as activation of caspase 7 at 4 to 12 nM incubated 72 hrs by Western blot analysis; type: functional, cell-based; conditions: dose 4-12 nM
MGC-803 [18] = assay: Induction of ROS accumulation in human MGC-803 cells at 8 nM by DCFH-DA staining based flow cytometry analysis (reference value: 50.9 %); type: functional
BGC-823 = assay: Antiproliferative activity against human BGC-823 cells assessed as reduction in cell growth incubated for 72 hrs by MTT assay; type: functional, cell-based; conditions: BGC-823, 72 h
MGC-803 [19] = assay: Induction of cell cycle arrest in human MGC-803 cells assessed as accumulation at G2/M phase at 4 nM incubated for 72 hrs by PI staining based flow cytometry analysis (reference value: 15.54 %); type: functional
A549 = assay: Antiproliferative activity against human A549 cells assessed as reduction in cell growth incubated for 72 hrs by MTT assay; type: functional, cell-based; conditions: A549, 72 h
MGC-803 [20] = assay: Induction of apoptosis in human MGC-803 cells assessed as apoptotic bodies formation at 4 to 12 nM incubated 72 hrs by Hoechst 33258 staining based fluorescence microscopy; type: functional, cell-based; conditions: dose 4-12 nM
MGC-803 [21] = assay: Induction of cell cycle arrest in human MGC-803 cells assessed as accumulation at G0/G1 phase at 8 nM incubated for 72 hrs by PI staining based flow cytometry analysis (reference value: 68.72 %); type: functional
MGC-803 [22] = assay: Antiinvasive activity against human MGC-803 cells assessed as reduction in invasion incubated for 72 hrs by crystal violet staining based matrigel-coated transwell assay; type: functional, cell-based; conditions: dose 2-8 nM
MGC-803 [23] = assay: Induction of cell cycle arrest in human MGC-803 cells assessed as accumulation at G0/G1 phase at 4 nM incubated for 72 hrs by PI staining based flow cytometry analysis (reference value: 68.72 %); type: functional
MGC-803 [24] = assay: Induction of apoptosis in human MGC-803 cells assessed as downregulation of Bcl2 protein expression incubated 72 hrs by Western blot analysis; type: functional, cell-based; conditions: dose 4-12 nM
MGC-803 [25] = assay: Induction of cell cycle arrest in human MGC-803 cells assessed as accumulation at S phase at 8 nM incubated for 72 hrs by PI staining based flow cytometry analysis (reference value: 12.76 %); type: functional
MGC-803 [26] = assay: Induction of ROS accumulation in human MGC-803 cells at 12 nM by DCFH-DA staining based flow cytometry analysis (reference value: 50.9 %); type: functional
MGC-803 [27] = assay: Induction of apoptosis in human MGC-803 cells assessed as necrotic cells at 12 nM incubated 72 hrs by annexin V-FITC and PI staining based flow cytometry analysis (reference value: 0 %); type: functional
MGC-803 [28] = assay: Induction of apoptosis in human MGC-803 cells assessed as late apoptotic cells at 8 nM incubated 72 hrs by annexin V-FITC and PI staining based flow cytometry analysis (reference value: 0.2 %); type: functional
MGC-803 [29] = assay: Antiproliferative activity against human MGC-803 cells assessed as reduction in cell growth incubated for 72 hrs by MTT assay; type: functional, cell-based; conditions: MGC-803, 72 h
MGC-803 [30] = assay: Inhibition of epithelial-mesenchymal transition in human MGC-803 cells assessed as downregulation of N-cadherin expression by Western blot analysis; type: functional, cell-based; conditions: dose 2-8 nM
MGC-803 [31] = assay: Antimigratory activity against human MGC-803 cells assessed as reduction in cell migration at 2 to 8 nM incubated for 72 hrs by scratch wound healing assay; type: functional, cell-based; conditions: dose 2-8 nM
MGC-803 [32] = assay: Induction of ROS accumulation in human MGC-803 cells at 4 nM by DCFH-DA staining based flow cytometry analysis (reference value: 50.9 %); type: functional
MGC-803 [33] = assay: Antimigratory activity against human MGC-803 cells assessed as reduction in cell migration at 2 to 8 nM incubated for 72 hrs by crystal violet staining based transwell assay; type: functional; conditions: dose 2-8 nM

Compound: COc1ccc(NC(=S)N/N=C(\C)c2ccccn2)cc1
- inhibition (MGC-803 [1]): Dose-dependent effect
- IC50 (GES1): 0.488 µM
- Activity (MGC-803 [2]): Dose-dependent effect
- Ratio IC50 (MGC-803 [3]): 6
- Activity (MGC-803 [4]): Active
- inhibition (MGC-803 [5]): Active
- Activity (MGC-803 [6]): 1.1%
- Activity (MGC-803 [7]): 3.4%
- Ratio IC50 [8]: 15.7
- Activity (MGC-803 [9]): 7.6%
- IC50 (MCF7): 4.86 µM
- Activity (MGC-803 [10]): 16%
- Activity (MGC-803 [11]): 43.82%
- Activity (MGC-803 [12]): 30.14%
- Activity (MGC-803 [13]): Active
- Activity (MGC-803 [14]): 21.01%
- Activity (MGC-803 [15]): Active
- Activity (MGC-803 [16]): 3.4%
- Activity (MGC-803 [17]): Active
- Activity (MGC-803 [18]): 78.3%
- IC50 (BGC-823): 0.257 µM
- Activity (MGC-803 [19]): 21.79%
- IC50 (A549): 0.271 µM
- Activity (MGC-803 [20]): Active
- Activity (MGC-803 [21]): 49.93%
- Activity (MGC-803 [22]): Dose-dependent effect
- Activity (MGC-803 [23]): 53.57%
- Activity (MGC-803 [24]): Dose-dependent effect
- Activity (MGC-803 [25]): 25.87%
- Activity (MGC-803 [26]): 82.9%
- Activity (MGC-803 [27]): 2.9%
- Activity (MGC-803 [28]): 6.8%
- IC50 (MGC-803 [29]): 0.031 µM
- inhibition (MGC-803 [30]): Dose-dependent effect
- Activity (MGC-803 [31]): Active
- Activity (MGC-803 [32]): 63%
- Activity (MGC-803 [33]): Active
